Drawing on US7452997B2 (priority 2004, dated 2008), this text covers IC50 for 48 compounds.

One experiment deals with T1, human CB1 receptor (Homo sapiens, UniProt P21554).
T1 construct: expressed in transfected cells; host or cells: SK-N-MC cells, stably transfected with pcDNA3 CB-1 (human); semi-purified membrane pellet
Put plainly: biochemical. Format: binding. An outline of the steps: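 Radioligand binding was run at 30° C for 90 minutes, pH 7.5 Tris buffer containing 0.5 mg/mL fatty acid free BSA, on semi-purified membranes of stably transfected SK-N-MC cells. Filter-bound radioactivity was scintillation counted, with IC50 obtained by linear regression across compound concentrations.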

For a further experiment, the target named is human CB2 receptor (Homo sapiens, UniProt P34972). In words: Binding assay, cannabinoid CB2 receptor ([3H]-CP-55,940 displacement). The following applies: SK-N-MC cell membranes, radioligand CP-55,940 0.2 nM. An outline of the steps: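 Displacement of [3H]-CP-55,940 (0.2 nM) was measured over 90 min at 30 °C (pH 7.5 Tris/MgCl2/EDTA buffer with BSA), using semi-purified membranes of human CB2-transfected SK-N-MC cells. Bound counts collected on GF/C filters, 10 uM WIN 55,212 as nonspecific control; IC50 from varied concentrations.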

[1] abbreviates: Cannabinoid CB2 Receptor Binding IC50, human CB2 receptor.

Molecules are shown by their SMILES. pIC50: −log10 of the molar value. Where two headings read alike, the source gives them in different places.

T1 sequence (P21554 whole entry): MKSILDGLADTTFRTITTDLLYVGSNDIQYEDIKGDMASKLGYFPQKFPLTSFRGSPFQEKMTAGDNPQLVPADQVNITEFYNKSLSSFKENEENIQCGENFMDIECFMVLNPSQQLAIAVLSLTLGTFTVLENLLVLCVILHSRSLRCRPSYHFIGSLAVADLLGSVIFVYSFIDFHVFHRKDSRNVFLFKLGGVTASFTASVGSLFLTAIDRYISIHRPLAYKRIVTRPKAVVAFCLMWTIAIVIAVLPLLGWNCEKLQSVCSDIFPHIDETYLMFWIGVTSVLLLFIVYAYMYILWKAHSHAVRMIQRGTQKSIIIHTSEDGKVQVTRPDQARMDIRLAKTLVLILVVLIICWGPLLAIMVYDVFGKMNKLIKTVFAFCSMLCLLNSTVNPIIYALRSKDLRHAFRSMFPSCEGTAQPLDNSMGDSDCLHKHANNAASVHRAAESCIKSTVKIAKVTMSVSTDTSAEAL
Chain of human CB2 receptor (P34972 whole entry): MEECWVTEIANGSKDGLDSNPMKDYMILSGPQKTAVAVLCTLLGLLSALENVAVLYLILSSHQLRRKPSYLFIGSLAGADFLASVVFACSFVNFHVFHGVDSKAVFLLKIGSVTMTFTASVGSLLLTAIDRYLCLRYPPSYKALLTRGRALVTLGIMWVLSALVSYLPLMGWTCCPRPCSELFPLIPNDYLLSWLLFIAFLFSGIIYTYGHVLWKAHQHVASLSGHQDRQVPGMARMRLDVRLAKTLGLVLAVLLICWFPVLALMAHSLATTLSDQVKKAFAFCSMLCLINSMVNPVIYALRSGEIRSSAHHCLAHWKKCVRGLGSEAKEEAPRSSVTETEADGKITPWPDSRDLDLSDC

Turning to `CCOC(=O)[C@@H]1C2C=CC(C2)[C@@H]1NC(=O)c1c2c(nn1Cc1ccccc1)CCCC2` (stereo partly drawn) [compound 277], the pIC50 at human CB1 receptor was 5.89; at human CB2 receptor (setting [1]) it was 5.48.

As for `O=C(NC1C2CC3CC(C2)CC1C3)c1nn(C2CCCCC2)c2c1CC(C(=O)OCc1ccccc1)CC2` (stereo not drawn) [compound 79], the pIC50 was 7.52 at human CB1 receptor and 8.00 at human CB2 receptor (setting [1]).

As to `Cc1ccc(Cn2nc(C(=O)NC3C4(C)CCC(C4)C3(C)C)c3c2CCCC3)cc1` (stereo not drawn) [compound 125], the negative-log IC50 (pIC50) against human CB1 receptor is 7.59; on human CB2 receptor (setting [1]) it was 8.66.

In the case of `CC12CCC(C1)C(C)(C)C2NC(=O)c1nn(C2CCCCC2)c2c1CC(N)CC2` (stereo not drawn) [Cpd 92, 5-amino-1-cyclohexyl-4,5,6,7-tetrahydro-1H-indazole-3-carboxylic acid (1,3,3-trimethyl-bicyclo[2.2.1]hept-2-yl)-amide], the negative logarithm of the IC50 (pIC50) was 5.80 at human CB1 receptor and 7.05 at human CB2 receptor (setting [1]).

On to `CCOC(=O)C1CC=CCC1NC(=O)c1nn(C2CCCCC2)c2c1CCCC2` (stereo not drawn) [compound 301], for which the pIC50 at human CB1 receptor is 7.62; at human CB2 receptor (setting [1]), 7.48.

On to `COC(=O)C(Cc1ccc(O)c(O)c1)NC(=O)c1nn(Cc2ccccc2)c2c1CCCC2` (stereo not drawn) [compound 82], for which the pIC50 on human CB1 receptor was 6.15; on human CB2 receptor (setting [1]), 6.70.

For `CC(NC(=O)c1nn(C2CCCCC2)c2c1CCCC2)C1CCCCCC1` (stereo not drawn) [compound 246], the pIC50 at human CB1 receptor was 5.64; on human CB2 receptor (setting [1]), 7.05.

On to `CCOC(=O)C1C2CCC(C2)C1NC(=O)c1nn(Cc2ccc(C)cc2)c2c1CCCC2` (stereo not drawn) [compound 126], for which the results for the negative logarithm of the IC50 (pIC50) against human CB1 receptor and on human CB2 receptor (setting [1]) were 6.22 and 6.23, respectively.

For the compound `CCOC(=O)C1CCc2nn(C3CCCCC3)c(C(=O)NC(C)C34CC5CC(CC(C5)C3)C4)c2C1` (stereo not drawn) [compound 190], the figures for the negative logarithm of the IC50 (pIC50) at human CB1 receptor and on human CB2 receptor (setting [1]) were 5.79 and 5.35, respectively.

As to `COC1CCCc2c(C(=O)NC3C4CC5CC(C4)CC3C5)nn(C3CCCCC3)c21` (stereo not drawn) [compound 162], the pIC50 was 6.20 on human CB1 receptor (human CB1 receptor, SK-N-MC cell membranes, radioligand CP-55,940 0.2 nM, read-out: Cannabinoid CB1 Receptor Binding IC50) and 6.96 at human CB2 receptor (human CB2 receptor, read-out: Cannabinoid CB2 Receptor Binding IC50).

`CCOC(=O)C1CCCc2c1c(C(=O)NC1C3CC4CC(C3)CC1C4)nn2C1CCCCC1` (stereo not drawn) [compound 71]: the results for the negative logarithm of the IC50 (pIC50) on human CB1 receptor and on human CB2 receptor (setting [1]) were 6.28 and 6.30, respectively.

In the case of `CC12CCC(C1)C(C)(C)C2NC(=O)c1nn(Cc2ccccc2)c2c1CCCC2` (stereo not drawn) [Cpd 194, 1-benzyl-4,5,6,7-tetrahydro-1H-indazole-3-carboxylic acid (1,3,3-trimethyl-bicyclo[2.2.1]hept-2-yl)-amide], the pIC50 against human CB1 receptor is 10.00; on human CB2 receptor (setting [1]), 9.70.

Turning to `CC(NC(=O)c1nn(C2CCCCC2)c2c1CCCC2)C1CCC1` (stereo not drawn) [compound 247], the figures for the pIC50 at human CB1 receptor and on human CB2 receptor (setting [1]) were 6.59 and 7.33, respectively.

As to `CCOC(=O)[C@@H]1CCC[C@@H]1NC(=O)c1nn(C2CCCCC2)c2c1CCCC2Cl` (stereo partly drawn) [compound 61], the pIC50 was 5.66 at human CB1 receptor and 6.72 on human CB2 receptor (setting [1]).

`CCOC(=O)[C@@H]1CCCC[C@H]1NC(=O)c1nn(-c2ccc(F)cc2)c2c1CCCC2` [compound 34]: the pIC50 against human CB1 receptor was 6.87; at human CB2 receptor (setting [1]), 7.39.

`C[C@H](C1CCCCC1)N(C)C(=O)c1nn(C2CCCCC2)c2c1CCCC2` [Cpd 328, 1-cyclohexyl-4,5,6,7-tetrahydro-1H-indazole-3-carboxylic acid [(1R)-1-cyclohexyl-ethyl]-methylamide]: the negative logarithm of the IC50 (pIC50) on human CB1 receptor was 5.29; at human CB2 receptor (setting [1]) it was 5.80.

In the case of `O=C(NC1C2CC3CC(C2)CC1C3)c1nn(-c2ccc(Cl)cc2Cl)c2c1CCCC2` (stereo not drawn) [compound 131], the pIC50 against human CB1 receptor was 7.52; at human CB2 receptor (setting [1]) it was 8.00.

With `CCOC(=O)C1CCc2c(C(=O)NC3C4CC5CC(C4)CC3C5)nn(Cc3ccccc3)c2C1` (stereo not drawn) [compound 230], the pIC50 was 8.00 at human CB1 receptor and 9.00 on human CB2 receptor (setting [1]).

As to `CC(C)(C)OC(=O)C1CCc2c(c(C(=O)NC3C4CC5CC(C4)CC3C5)nn2C2CCCCC2)C1` (stereo not drawn) [compound 233], the values for the pIC50 on human CB1 receptor and at human CB2 receptor (setting [1]) were 5.80 and 6.06, respectively.

As to `CCOC(=O)[C@@H]1C2CCC(C2)[C@@H]1NC(=O)c1nn(Cc2ccccc2)c2c1CCCC2` (stereo partly drawn) [compound 274], the values for the pIC50 on human CB1 receptor and on human CB2 receptor (setting [1]) were 7.73 and 8.80, respectively.

Take `CC(NC(=O)c1nn(C2CCCCC2)c2c1CC(=O)CC2)C12CC3CC(CC(C3)C1)C2` (stereo not drawn) [compound 97]: the pIC50 is 5.01 on human CB1 receptor and 7.52 at human CB2 receptor (setting [1]).

On to `CC12CCC(C1)C(C)(C)C2NC(=O)CCc1nn(C2CCCCC2)c2c1CCCC2` (stereo not drawn) [Cpd 50, 3-(1-cyclohexyl-4,5,6,7-tetrahydro-1H-indazol-3-yl)-N-(1,3,3-trimethyl-bicyclo[2.2.1]hept-2-yl)-propionamide], for which the figures for the pIC50 against human CB1 receptor and on human CB2 receptor (setting [1]) were 6.59 and 7.89, respectively.

With `O=C(NC12CC3CC(CC(C3)C1)C2)c1nn(-c2ccc(F)cc2)c2c1CCCC2CCc1ccccc1` (stereo not drawn) [compound 150], the negative-log IC50 (pIC50) on human CB1 receptor was 6.89; on human CB2 receptor (setting [1]), 7.40.

As to `C[C@H]1C(NC(=O)c2nn(C3CCCCC3)c3c2CCCC3)C[C@@H]2C[C@H]1C2(C)C` (stereo partly drawn) [compound 252], the negative-log IC50 (pIC50) against human CB1 receptor was 7.40; on human CB2 receptor (setting [1]), 7.32.

`CCOC(=O)C1=C(NC(=O)c2nn(C3CCCCC3)c3c2CCCC3)CCC1` [compound 57]: the pIC50 is 4.96 against human CB1 receptor and 5.66 on human CB2 receptor (setting [1]).

With `CCOC(=O)C1CCc2nn(Cc3ccccc3)c(C(=O)NC34CC5CC(CC3C5)C4)c2C1` (stereo not drawn) [compound 227], the pIC50 at human CB1 receptor is 5.56; on human CB2 receptor (setting [1]) it was 5.94.

In the case of `COc1ccccc1CCNC(=O)c1nn(Cc2ccccc2)c2c1CCCC2` [compound 237], the values for the pIC50 at human CB1 receptor and at human CB2 receptor (setting [1]) were 6.05 and 6.82, respectively.

Turning to `C[C@@H](NC(=O)c1nn(Cc2ccccc2)c2c1CCCC2)c1ccccc1` [compound 199], the pIC50 was 7.72 against human CB1 receptor and 8.00 on human CB2 receptor (setting [1]).

As to `O=C(Nc1nn(C2CCCCC2)c2c1CCCC2)C1CCCCC1` [compound 180], the pIC50 on human CB1 receptor is 6.15; on human CB2 receptor (setting [1]) it was 5.77.

In the case of `CC(NC(=O)c1nn(C2CCCCC2)c2c1CC(C(N)=O)CC2)C12CC3CC(CC(C3)C1)C2` (stereo not drawn) [compound 224], the pIC50 was 5.82 against human CB1 receptor and 5.92 at human CB2 receptor (setting [1]).

For `CCOC(=O)C1C2CCC(C2)C1NC(=O)c1c2c(nn1Cc1ccccc1)CCCC2` (stereo not drawn) [compound 42], the results for the pIC50 on human CB1 receptor and on human CB2 receptor (setting [1]) were 4.97 and 6.19, respectively.

For the compound `O=C(Nc1nn(C2CCCCC2)c2c1CCCC2)c1cccc2ccccc12` [compound 181], the results for the pIC50 at human CB1 receptor and on human CB2 receptor (setting [1]) were 6.52 and 5.80, respectively.

On to `CCOC(=O)[C@@H]1CCCC[C@H]1NC(=O)c1nn(Cc2ccccc2)c2c1CCCC2` [compound 272], for which the results for the negative-log IC50 (pIC50) against human CB1 receptor and on human CB2 receptor (setting [1]) were 7.07 and 7.15, respectively.

As for `CC1(C)C2CCC1(C)C(NC(=O)c1nn(C3CCCCC3)c3c1CCCC3)C2` (stereo not drawn) [compound 25], the negative-log IC50 (pIC50) against human CB1 receptor is 7.12; on human CB2 receptor (setting [1]), 8.80.

Take `CCOC(=O)[C@H]1C2CCC(C2)[C@H]1NC(=O)c1nn(-c2ccc(Cl)cc2Cl)c2c1CCCC2` (stereo partly drawn) [compound 130]: the pIC50 on human CB1 receptor was 6.40; on human CB2 receptor (setting [1]), 8.30.

Regarding `CCOC(=O)C1CCCc2c1c(C(=O)N[C@H](C)C1CCCCC1)nn2C1CCCCC1` (stereo partly drawn) [compound 285], the values for the pIC50 at human CB1 receptor and on human CB2 receptor (setting [1]) were 5.54 and 5.62, respectively.

With `CCOC(=O)C(Cc1nn(C2CCCCC2)c2c1CCCC2)c1ccccc1OC` (stereo not drawn) [Cpd 332, 3-(1-cyclohexyl-4,5,6,7-tetrahydro-1H-indazol-3-yl)-2-(2-methoxy-phenyl)-propionic acid ethyl ester], the pIC50 against human CB1 receptor is 5.41; at human CB2 receptor (setting [1]), 5.72.

Take `COC(=O)C(Cc1ccc(O)cc1)NC(=O)c1nn(-c2ccc(OC)cc2)c2c1CCCC2` (stereo not drawn) [compound 5]: the pIC50 on human CB1 receptor was 5.17; on human CB2 receptor (setting [1]), 6.54.

As for `CCOC(=O)[C@H]1C2C=CC(C2)[C@H]1NC(=O)c1nn(Cc2ccccc2)c2c1CCCC2` (stereo partly drawn) [compound 276], the pIC50 was 6.87 on human CB1 receptor and 6.60 on human CB2 receptor (setting [1]).

As for `O=C(NN1CCCCCC1)c1nn(Cc2ccccc2)c2c1CCCC2` [compound 41], the negative logarithm of the IC50 (pIC50) against human CB1 receptor is 7.31; at human CB2 receptor (setting [1]), 7.46.

Regarding `CC(NC(=O)c1nn(C2CCCCC2)c2c1CCCC2O)C12CC3CC(CC(C3)C1)C2` (stereo not drawn) [compound 163], the negative-log IC50 (pIC50) at human CB1 receptor was 5.32; on human CB2 receptor (setting [1]) it was 6.68.

As for `CC(NC(=O)c1nn(C2CCCCC2)c2c1CCCC2Cl)C12CC3CC(CC(C3)C1)C2` (stereo not drawn) [compound 64], the pIC50 against human CB1 receptor was 6.39; at human CB2 receptor (setting [1]), 7.52.

For `CC12CCC(C1)C(C)(C)C2NC(=O)c1nn(C2CCCCCC2)c2c1CCCC2` (stereo not drawn) [compound 74], the negative logarithm of the IC50 (pIC50) at human CB1 receptor is 7.82; on human CB2 receptor (setting [1]), 8.85.

Regarding `CC(NC(=O)CCc1nn(C2CCCCC2)c2c1CCCC2)C12CC3CC(CC(C3)C1)C2` (stereo not drawn) [compound 53], the results for the negative logarithm of the IC50 (pIC50) against human CB1 receptor and at human CB2 receptor (setting [1]) were 5.21 and 6.64, respectively.

Turning to `O=C(NCC1CCCCC1)c1nn(Cc2ccccc2)c2c1CCCC2` [compound 189], the pIC50 at human CB1 receptor and on human CB2 receptor (setting [1]) was 8.00 throughout.

As for `O=C(NC(c1ccccc1)C1CCCCC1)c1nn(C2CCCCC2)c2c1CCCC2` (stereo not drawn) [Cpd 331, 1-cyclohexyl-4,5,6,7-tetrahydro-1H-indazole-3-carboxylic acid (cyclohexyl-phenyl)methylamide], the pIC50 against human CB1 receptor is 5.52; at human CB2 receptor (setting [1]), 7.01.

Consider `CCOC(=O)[C@@H]1C2CCC(C2)[C@@H]1NC(=O)c1c2c(nn1Cc1ccccc1)CCCC2` (stereo partly drawn) [compound 273], for which the pIC50 against human CB1 receptor is 5.80; at human CB2 receptor (setting [1]) it was 6.38.

As for `CCOC(=O)C1CCc2c(c(C(=O)NC(C)C34CC5CC(CC(C5)C3)C4)nn2Cc2ccccc2)C1` (stereo not drawn) [compound 148], the pIC50 against human CB1 receptor is 7.89; at human CB2 receptor (setting [1]), 7.52.

One may read the pIC50 as the negative decadic logarithm of the IC50, by convention in mol/L.
